Key:
Type in all cases: cell-based
P. aeruginosa [1] = experiment: Survival of P. aeruginosa biofilm after exposure to ciprofloxacin or gentamicin (CFU); settings: alone or in combination (FIGS. 7 and 9)
Description: P. aeruginosa biofilms were grown in multi-well 24 wells plates in TSB for 12 hours. Following, biofilms were treated either in PBS or PBS applied with the indicated concentrations of DTNB, AHA, CIP and/or GM for 6 hours. Following treatment, the biofilms were mildly sonicated and serially diluted to assess the number of CFU within each group.

B. subtilis [2] = experiment: Pellicle biofilm model, B. subtilis in liquid B4
Description: (§1) B. subtilis (FIG. 4A) and M. smegmatis (FIG. 4B) cells were grown in liquid B4 supplemented with 0.25% and 0.025% calcium acetate, respectively, and treated with AHA at the indicated concentrations. DMSO served as a positive control and a medium not supplemented with Ca served as a negative control. The images of the top view of the wells were taken following robust pellicles formed in the DMSO control—at 3 days for B. subtilis and at 4 days for M. smegmatis.
B. subtilis cells were grown in liquid B4 supplemented with 0.25% calcium acetate and treated with AHA at the indicated concentrations. DMSO served as a positive control and a medium not supplemented with Ca served as a negative control. The images of the top view of the wells were taken following 6 days; and the weight of the mineral was determined following removal of all organic material by bleaching.
Analysis of the weight of the minerals—(A) Thermogravimetric analysis (TGA) of the B. subtilis colonies was performed as described previously [Levi-Kalisman et al., J Chem Soc Dalton (2000), 3977-3982] for at-least three colonies materials combined for each time point. The weight loss associated with the calcite relates to the temperature range 650-800° C. Results are presented as an average of at-least three independent experiments. […]

B. subtilis [3] = experiment: Planktonic growth (OD600) of B. subtilis in B4 medium; settings: B4 medium with Ca, AHA concentrations giving smooth colonies (FIG. 3C upper)
Description: (§2) B. subtilis and M. smegmatis colonies grown on 1.5% B4 agar, supplemented with Ca acetate. FIG. 3A is a schematic representation of the biomineralization reactions leading to bicarbonate production. […] Scale bars represent 2 mm. […] DMSO served as a positive control and a medium not supplemented with Ca served as a negative control. Scale bars represent 2 mm. […] Colonies were grown in a medium supplemented with 0.025% Ca and treated with 10 mg/ml AHA. DMSO served as a positive control and a medium not supplemented with Ca served as a negative control. Scale bars represent 2 mm in the upper panels; and 0.5 mm in the lower panels.
(§3) Growth Analysis—To determine growth kinetics of planktonic bacteria,the cultures were grown for 15-30 hours at 30° C. in a plate reader (BioTek, Winooski, Vt., USA) and the optical density at 600 nm (OD600) was measured every 20 minutes. Results are presented as averages for 5-6 wells from a single representative experiment out of three.

[4] = test system: P. aeruginosa pre-existing biofilm; experiment: P. aeruginosa pre-existing biofilm, Crystal Violet Staining; settings: biofilms grown 12 hours in TSB, treated 6 hours in PBS (FIG. 8)
Description: P. aeruginosa biofilms were grown in multi-well 24 wells plates in TSB for 12 hours. Following, biofilms were treated either in PBS or PBS applied with the indicated concentrations of sodium vanadate, DTNB or AHA for 6 hours. Results are shown as intensity of crystal violet staining (OD595) compared with the initial absorbance prior to treatment.
(§4) Crystal Violet—From each individual culture, 20 μl samples from exponential phase and 180 μl of TSB broth were dispensed in the wells of sterile 96-wells flat-bottomed microtiter plate (Nunc) and incubated at 37° C. for 24 hours. The control well contained only TSB broth without inoculation. Following incubation, unbound cells were removed by inversion of the microtiter plate, followed by vigorous tapping on an absorbent paper. Subsequently, adhered cells were fixed for 30 minutes at […]. Adhered cells were stained by addition of 220 μl of crystal violet (0.5%) for 5 minutes. The stain was removed by exhaustive washing with distilled water. The plates were then allowed to dry. In order to quantify adhered cells, 220 μl of decoloring solution (95% ethanol) was added to each well for 15 minutes. The absorption of the eluted stain was measured at 590 nm.

M. smegmatis = experiment: Pellicle biofilm model, M. smegmatis in liquid B4; settings: liquid B4, 0.025% calcium acetate, 4 days (FIG. 4B)
Description: as §1

P. aeruginosa [5] = experiment: Planktonic growth of P. aeruginosa; settings: inhibitor concentrations used, data not shown
Description: as §3

P. aeruginosa [6] = experiment: P. aeruginosa biofilm formation, Crystal Violet Staining; settings: for biofilm development: P. aeruginosa submerged biofilm, single inhibitor (FIG. 6); for biofilm formation / combination effect on biofilm formation: P. aeruginosa; for biofilm formation: single inhibitor (FIGS. 13-14)
Description: as §4

B. subtilis colonies [7] = experiment: FITC diffusion in colony cross-sections; settings: day 3 B. subtilis colonies, 0.025% Ca, 10 mg/ml AHA, 4 hours after FITC (FIG. 3E)
Description: as §2
Imaging—All images were taken using a Nikon D3 camera or a Stereo Discovery V20″ microscope (Tochigi, Japan) with objectives Plan Apo S ×0.5 FWD 134 mm or Apo S ×1.0 FWD 60 mm (Zeiss, Goettingen, Germany) attached to a high-resolution microscopy Axiocam camera. Data were created and processed using Axiovision suite software (Zeiss). To visualize colony cross-sections, a warm low-melt agar was poured over the colony following incubation with FITC, and allowed to solidify at room temperature (RT). Following, slices were made with a razor blade and immediately visualized. All experiments were repeated at least 3 times, in technical triplicates, with similar results.

[8] = test system: M. smegmatis planktonic cells; experiment: Planktonic growth (OD600) of M. smegmatis in B4 medium; settings: B4 medium with Ca (FIG. 3C lower)
Description: as §2, §3

M. smegmatis colonies = experiment: M. smegmatis colony biofilm on B4 agar with Ca acetate
B. subtilis colonies [9] = experiment: B. subtilis colony biofilm on B4 agar with Ca acetate
P. aeruginosa [10] = experiment: Ex vivo lung infection system (mouse lung explants infected with P. aeruginosa); settings: 37° C.; for lung colonization by P. aeruginosa / lung tissue death: mouse lung explants, ~2 days (FIGS. 10D and 11); for tissue damage (Hematoxylin/eosin histology): mouse lung tissue with P. aeruginosa, 2 days
Description: FIG. 10A is a scanning Electron Microscopy (SEM) image of biofilms of partially bleached sputum sample from P. aeruginosa positive CF patient A4, containing bleach-resistant mineralized tissue. FIG. 10B is a SEM image of biofilms of partially bleached sputum sample from P. aeruginosa positive CF patient A62 (left), accompanied by an image taken with the backscattering mode (right), containing bleach-resistant mineralized tissue. […] P. aeruginosa strain PA14 expressing GFP (green) was used to infect a lung tissue (nucleoli of lung cells were stained with DAPI—blue). Lung tissue was harvested from one month old mice and incubated in DMEM 5% FCS at 37° C. for 2 days, in the presence of P. aeruginosa, sectioned and visualized. […] Lungs were harvested from one month old mice and tissue was incubated in DMEM 5% FCS, either with or without AHA, as indicated. To each sample, either P. aeruginosa or DMEM (control) was added. Samples were incubated at 37° C. for 2 days, sectioned, stained with Hematoxylin/eosin stain and visualized.
Lungs were harvested from one month old mice and tissue was incubated in DMEM 5% FCS, either with or without DTNB, as indicated. To each sample, either P. aeruginosa or DMEM (control) was added. Samples were incubated at 37° C. for 2 days, sectioned, stained with Hematoxylin/eosin stain and visualized.
Ex vivo lung infection system—Lungs were harvested from 2 mice (one month old) and placed in petri dishes containing DMEM 5% FCS. The tissue was divided into circular pieces 4 mm in diameter with a biopsy punch and transferred to a 24 wells plate (4-5 explants/well) with 450 μl DMEM containing 100 μg/ml carbenicillin (Sigma-Aldrich) and 0, 2.5, or 5 mg/ml AHA or DTNB. To each respective well, either 50 μl DMEM (control) or P. aeruginosa pretreated with 0, 2.5, or 5 mg/ml AHA or with 0, 1, 5 or 10 mM DTNB and diluted within DMEM to attain OD600 0.373 or 0.257, respectively, were added, with three technical repeats for each condition. The plates were incubated at 37° C. for ˜2 days (48-52 hours) and washed twice with PBS, fixed with PFA 4% for 10 minutes, and embedded in either cryosection (OCT) compound or paraffin. Paraffin samples were cut into 7 micron slices and stained with H&E; whereas cryosections were cut into 10 micron slices and placed on superfrost plus slides.

## CC(=O)NO [AHA, acetohydroxamic acid]
P. aeruginosa [1]
  sensitization to ciprofloxacin and gentamicin: sensitized the P. aeruginosa colonies to treatment with ciprofloxacin and gentamicin
B. subtilis [2]; B. subtilis pellicle, 0.25% calcium acetate, 6 days, mineral weight after bleaching (FIG. 5)
  non-soluble mineral production: decreased non-soluble mineral production
B. subtilis [2]; B. subtilis, liquid B4, 0.25% calcium acetate, 3 days (FIG. 4A)
  growth, biofilm development and biomineralization in pellicle biofilm model: inhibits growth, biofilm development and biomineralization
B. subtilis [3]
  effect on planktonic growth: little or no effect on planktonic growth
[4]
  dispersal of pre-existing biofilm: able to disperse a pre-existing P. aeruginosa biofilm
M. smegmatis
  growth, biofilm development and biomineralization in pellicle biofilm model: inhibits growth, biofilm development and biomineralization
P. aeruginosa [5]
  effect on planktonic growth: little or no effect on planktonic growth
P. aeruginosa [6]
  biofilm development: impaired biofilm development
  biofilm formation: inhibited biofilm formation
B. subtilis colonies [7]
  formation of diffusion barriers within the colony: prevented the formation of the diffusion barriers within the colony
[8]
  tolerance by planktonic cells: well-tolerated
M. smegmatis colonies; 0.025% Ca, AHA concentrations tolerated by planktonic cells (FIG. 3D)
  colony morphology: less wrinkled colonies
M. smegmatis colonies; inhibition of urease activity
  growth, biofilm development and biomineralization: inhibited growth, biofilm development and biomineralization
B. subtilis colonies [9]; B. subtilis colonies on 1.5% B4 agar with Ca acetate (FIGS. 3A-E)
  growth, biofilm development and biomineralization of colonies: inhibits growth, biofilm development and biomineralization
B. subtilis colonies [9]; B. subtilis, medium with 0.25% Ca, AHA at indicated doses (FIG. 3B)
  colony morphology: smooth colony morphology
P. aeruginosa [10]
  lung colonization by P. aeruginosa: diminished lung colonization by P. aeruginosa
  lung tissue death: prevented lung tissue death
  tissue damage (Hematoxylin/eosin histology): prevents tissue damage

## O=C(O)c1cc(SSc2ccc([N+](=O)[O-])c(C(=O)O)c2)ccc1[N+](=O)[O-] [DTNB, 5,5′-Dithiobis (2-nitrobenzoic acid, DTNB)]
P. aeruginosa [1]
  sensitization to ciprofloxacin and gentamicin: sensitized the P. aeruginosa colonies to treatment with ciprofloxacin and gentamicin
[4]
  dispersal of pre-existing biofilm: able to disperse a pre-existing P. aeruginosa biofilm
P. aeruginosa [5]
  effect on planktonic growth: little or no effect on planktonic growth
P. aeruginosa [6]
  biofilm development: impaired biofilm development
  biofilm formation: inhibited biofilm formation
P. aeruginosa [10]
  lung colonization by P. aeruginosa: diminished lung colonization by P. aeruginosa
  lung tissue death: prevented lung tissue death
  tissue damage (Hematoxylin/eosin histology): prevents tissue damage

## sodium vanadate
P. aeruginosa [6]; in combination with AHA (FIG. 13)
  combination effect on biofilm formation: synergistic
P. aeruginosa [6]; in combination with DTNB (FIG. 14)
  combination effect on biofilm formation: synergistic
P. aeruginosa [6]
  biofilm formation: inhibited biofilm formation

Reference: patent US20210015889A1, “METHODS OF DISRUPTING A BIOFILM AND/OR PREVENTING FORMATION OF SAME” (Yeda Research and Development Co. Ltd., priority 2018, published 2021)
